Columns and labels:
[1] = test system: A549 human lung cancer cells; test: Cell proliferation-inhibiting activity, A549 (CellTiter-Glo); assay type: cell-based; conditions: A549, 96 h
Method: The test compound was serially diluted with DMSO and then diluted 25-fold with Ca^2+, Mg^2+-free phosphate-buffered saline, and was then dispensed into a 96-well plate at 5 μL per well. A cell suspension containing the below indicated concentration of A549, Calu-6 or NCI-H2122 human lung cancer cells (all obtained from ATCC) was prepared using the below indicated medium with the addition of 10% fetal bovine serum (Sigma). The cell suspension was dispensed into the test compound-added plate at 95 μL per well and cultured in a 5% carbon dioxide gas incubator at 37° C. After 4 days, 80 μL of CellTiter-Glo (registered trademark) (Promega Corp.) was added to each well and the bioluminescence was measured with a fluorescent plate reader.

[2] = Human liver microsome stability; assay type: in vitro ADME; conditions: pH 7.4; human liver microsomes, NADPH, 37° C.
Method: The compounds listed in Table 2 below were tested for metabolic stability in human liver microsomes as described below using a Biomek3000 (Beckman Coulter). There were dispensed 400 ILL of 1 mg/mL human liver microsomes (XENOTECH)/0.1 M potassium phosphate buffer (pH 7.4) into each well of a 96-well plate. A DMSO solution (4 μL) of 200 μM test compound was then added, and incubation was conducted until reaching 37° C. To this reaction mixture (200 IL) there was added a solution (200 μL) containing 2 mM NADPH (ORIENTAL YEAST)/0.1 M potassium phosphate buffer (pH 7.4) that had been incubated at 37° C. At 0 min, 5 min, 15 min or 30 min after addition, the reaction mixture (50 μL) was added to acetonitrile (100 μL) to stop the metabolic reaction. After the metabolic reaction was stopped, a 1 μM warfarin aqueous solution (50 μL) was added to each reaction mixture as an internal standard. […] The percent remaining relative to the amount of test compound at 0 min was calculated from the obtained peak area ratio of the test compound to internal standard. The elimination rate constant (ke) was calculated from the incubation time and percent remaining using the primary elimination rate equation, and the hepatic intrinsic clearance (CLint) was calculated using the formula shown below. […]

BRAF = molecular target: T1, BRAF (Homo sapiens, UniProt P15056); test: BRAF-inhibiting activity (time-resolved fluorescence-fluorescence resonance energy transfer assay); assay type: biochemical; conditions: MEK1, ATP-containing buffer
T1 construct: purchased Eurofins Genomics KK
Method: The BRAF-inhibiting activity of the compounds listed in Table 2 below was evaluated by the time-resolved fluorescence-fluorescence resonance energy transfer assay as described below.

T1 sequence (P15056 whole entry): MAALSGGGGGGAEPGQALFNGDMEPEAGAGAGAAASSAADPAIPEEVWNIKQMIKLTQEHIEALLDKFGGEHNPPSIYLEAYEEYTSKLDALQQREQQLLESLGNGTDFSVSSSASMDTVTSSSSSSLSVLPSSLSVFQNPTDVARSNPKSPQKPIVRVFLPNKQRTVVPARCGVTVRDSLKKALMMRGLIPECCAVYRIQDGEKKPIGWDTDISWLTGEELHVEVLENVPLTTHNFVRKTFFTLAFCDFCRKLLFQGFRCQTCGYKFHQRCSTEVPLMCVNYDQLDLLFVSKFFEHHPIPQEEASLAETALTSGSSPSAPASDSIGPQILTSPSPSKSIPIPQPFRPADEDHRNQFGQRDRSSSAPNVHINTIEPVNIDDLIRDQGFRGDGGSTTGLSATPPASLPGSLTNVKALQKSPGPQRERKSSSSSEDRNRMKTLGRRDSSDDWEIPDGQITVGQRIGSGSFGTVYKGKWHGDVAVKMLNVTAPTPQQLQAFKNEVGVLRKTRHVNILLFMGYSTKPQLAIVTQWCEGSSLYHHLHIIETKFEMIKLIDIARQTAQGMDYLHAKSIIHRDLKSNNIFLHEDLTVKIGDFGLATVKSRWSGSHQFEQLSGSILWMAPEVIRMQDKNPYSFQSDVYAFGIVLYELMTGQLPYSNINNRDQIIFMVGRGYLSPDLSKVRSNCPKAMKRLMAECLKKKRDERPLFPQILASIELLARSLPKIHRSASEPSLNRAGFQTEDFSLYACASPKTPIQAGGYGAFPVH
T1 sequence (Q02750 whole entry partner): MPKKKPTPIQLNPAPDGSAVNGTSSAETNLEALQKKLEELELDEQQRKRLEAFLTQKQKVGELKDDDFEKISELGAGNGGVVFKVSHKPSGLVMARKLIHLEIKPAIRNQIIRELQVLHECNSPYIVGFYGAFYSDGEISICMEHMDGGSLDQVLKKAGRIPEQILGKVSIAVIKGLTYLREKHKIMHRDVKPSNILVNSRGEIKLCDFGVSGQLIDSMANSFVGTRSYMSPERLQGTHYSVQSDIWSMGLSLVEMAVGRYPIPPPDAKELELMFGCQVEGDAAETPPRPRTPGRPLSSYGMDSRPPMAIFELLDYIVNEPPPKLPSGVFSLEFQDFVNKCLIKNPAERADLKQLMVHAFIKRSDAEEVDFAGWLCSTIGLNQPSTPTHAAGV

Row | SMILES | IC50 [1] [nM] | IC50 (BRAF) [nM] | other results
1 | NC(=O)c1cc(Cc2ccnc(NS(=O)(=O)NCC3COC3)c2F)c(F)c(F)c1Nc1ccc(I)cc1F [Sample A-21, 3,4-difluoro-2-(2-fluoro-4-iodoanilino)-5-[[3-fluoro-2-(oxetan-3-ylmethylsulfamoylamino)pyridin-4-yl]methyl]benzamide] | 3 | – | –
2 | NC(=O)c1cc(Cc2ccnc(NS(=O)(=O)NC3C4COCC43)c2F)c(F)c(F)c1Nc1ccc(I)cc1F (centres unmarked) [Sample A-22, 3,4-Difluoro-2-(2-fluoro-4-iodoanilino)-5-[[3-fluoro-2-(3-oxabicyclo[3.1.0]hexan-6-ylsulfamoylamino)pyridin-4-yl]methyl]benzamide] | – | – | microsomal CLint at 0.99 µM [2]: 47 µL/min/mg
3 | NC(=O)c1cc(Cc2ccnc(NS(=O)(=O)NC3CCOCC3)c2F)c(F)c(F)c1Nc1ccc(I)cc1F [Sample A-29, 3,4-Difluoro-2-(2-fluoro-4-iodoanilino)-5-[[3-fluoro-2-(oxan-4-ylsulfamoylamino)pyridin-4-yl]methyl]benzamide] | – | 1 | –
4 | CC1(NS(=O)(=O)Nc2nccc(Cc3cc(C(N)=O)c(Nc4ccc(I)cc4F)c(F)c3F)c2F)CCC1 [Sample A-35, 3,4-difluoro-2-(2-fluoro-4-iodoanilino)-5-[[3-fluoro-2-[(1-methylcyclobutyl)sulfamoylamino]pyridin-4-yl]methyl]benzamide] | 2 | – | –
5 | CCNS(=O)(=O)Nc1nccc(Cc2cc(C(=O)NOCCO)c(Nc3ccc(I)cc3F)c(F)c2F)c1F [Sample A-44, 5-[[2-(Ethylsulfamoylamino)-3-fluoropyridin-4-yl]methyl]-3,4-difluoro-2-(2-fluoro-4-iodoanilino)-N-(2-hydroxyethoxy)benzamide] | – | 9 | –
